Data from patent US20260042764A1, “COMPOSITIONS AND METHODS FOR INHIBITION OF KRAS” (TheRas, Inc., priority 2022, published 2026).

Assays:
[1] = target: T1, Avi-KRAS G12V (2-169) GTP/RAF1 RBD-3xFLAG (51-131) (Homo sapiens, UniProt P01116, G12V); experiment: Raf1-KRAS G12V-GTP disruption HTRF assay (Biological Example 3); type: binding; settings: KRAS G12V, GTP-loaded
T1 construct: Avi-KRAS G12V (2-169)
Method in brief: (§1)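 HTRF PPI read-out (ex 320 nm, em 615 nm) after 1 h RT incubation with shaking; data as % activity vs DMSO (100%), IC50 from curve fit. Complex 50 nM, RBD reagent 75 nM; compound 30-0.005 μM, 3-fold.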

[2] = target: T2, Avi-KRAS G12R (1-169) GppNHp/RAF1 RBD-3xFLAG (52-151) (Homo sapiens, UniProt P01116, G12R); experiment: Raf1-KRAS G12R-GppNHP disruption HTRF assay (Biological Example 1); type: binding; settings: KRAS G12R-GppNHp/RAF1 RBD HTRF
T2 construct: Avi-KRAS G12R (1-169)
T2 sequence (P01116 1-169 isoform P01116-2 G12R): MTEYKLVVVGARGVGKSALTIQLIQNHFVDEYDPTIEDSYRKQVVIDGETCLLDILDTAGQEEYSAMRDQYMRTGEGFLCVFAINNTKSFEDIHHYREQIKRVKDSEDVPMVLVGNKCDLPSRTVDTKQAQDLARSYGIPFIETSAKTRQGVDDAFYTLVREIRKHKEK
Method in brief: (§2)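 Read-out is HTRF signal of the KRAS–RAF1 RBD complex, reported as percentage of activity relative to DMSO (100%). Protein mix and detection reagents each incubated 1 h at room temperature with 700 rpm shaking. Buffer: 50 mM Tris pH 7.5, 100 mM NaCl, 5 mM MgCl2, 0.1% BSA, 0.01% Tween, 10% DMSO.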

[3] = target: T3, Avi-KRAS G12C (2-169) GTP/RAF1 RBD-3xFLAG (51-131) (Homo sapiens, UniProt P01116, G12C); experiment: Raf1-KRAS G12C-GTP disruption HTRF assay (Biological Example 3); type: binding; settings: KRAS G12C, GTP-loaded
T3 construct: Avi-KRAS G12C (2-169)
T3 sequence (P01116 2-169 isoform P01116-2 G12C): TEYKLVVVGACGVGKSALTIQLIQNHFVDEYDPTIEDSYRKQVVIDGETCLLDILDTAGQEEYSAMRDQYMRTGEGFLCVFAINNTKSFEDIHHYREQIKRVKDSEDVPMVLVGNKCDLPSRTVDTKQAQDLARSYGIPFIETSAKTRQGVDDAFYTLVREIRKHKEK
Method in brief: as §1

GP2d cells (KRAS G12D) = experiment: Cell-based pERK HTRF assay in GP2d cell (Biological Example 2); settings: GP2d (KRAS G12D) cells
Method in brief: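 GP2d (KRAS G12D) cells were plated in DMEM/10% FBS and treated the next day for 60 min with compounds. Dosing used 9-point half-log series starting at 1 μM or 100 nM in 0.25% DMSO. Lysates were read by HTRF pERK (d2/Eu cryptate antibodies) after 4–24 h at room temperature, with excitation at 320 nm and emission at 615 nm.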

[4] = target: T4, Avi-KRAS G12V (1-169) GppNHp/RAF1 RBD-3xFLAG (52-151) (Homo sapiens, UniProt P01116, G12V); experiment: Raf1-KRAS G12V-GppNHP disruption HTRF assay (Biological Example 1); type: binding; settings: KRAS G12V-GppNHp/RAF1 RBD HTRF
T4 construct: Avi-KRAS G12V (1-169)
T4 sequence (P01116 1-169 isoform P01116-2 G12V): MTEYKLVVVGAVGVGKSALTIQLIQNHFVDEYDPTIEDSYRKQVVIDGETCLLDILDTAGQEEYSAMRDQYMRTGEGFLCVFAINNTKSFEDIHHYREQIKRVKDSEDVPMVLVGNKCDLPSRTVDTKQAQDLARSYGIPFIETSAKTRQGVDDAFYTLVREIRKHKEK
Method in brief: as §2

[5] = target: T5, Avi-KRAS G12D (2-169) GTP/RAF1 RBD-3xFLAG (51-131) (Homo sapiens, UniProt P01116, G12D); experiment: Raf1-KRAS G12D-GTP disruption HTRF assay (Biological Example 3); type: binding; settings: KRAS G12D, GTP-loaded
T5 construct: Avi-KRAS G12D (2-169)
T5 sequence (P01116 2-169 isoform P01116-2 G12D): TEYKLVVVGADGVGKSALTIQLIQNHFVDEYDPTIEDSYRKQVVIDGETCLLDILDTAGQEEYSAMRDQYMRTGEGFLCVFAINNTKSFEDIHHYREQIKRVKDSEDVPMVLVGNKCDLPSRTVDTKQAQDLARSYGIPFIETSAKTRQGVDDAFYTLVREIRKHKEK
Method in brief: as §1

T1 sequence (P01116 2-169 isoform P01116-2 G12V): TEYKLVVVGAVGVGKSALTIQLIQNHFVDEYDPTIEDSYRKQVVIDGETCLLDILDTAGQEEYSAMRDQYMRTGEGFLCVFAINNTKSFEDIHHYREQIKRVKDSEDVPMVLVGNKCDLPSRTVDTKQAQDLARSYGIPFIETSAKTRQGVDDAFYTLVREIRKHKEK

Structure (SMILES) | IC50 [1] [nM] | IC50 [2] [nM] | IC50 [3] [nM] | IC50 (GP2d cells (KRAS G12D); GP2d) [nM] | IC50 (GP2d cells (KRAS G12D); GP2d, pERK HTRF) [nM] | IC50 [4] [nM] | IC50 [5] [nM] | IC50 (GP2d cells (KRAS G12D); pERK HTRF) [nM] | IC50 (GP2d cells (KRAS G12D)) [nM]
CCN(c1nc(OC[C@@]23CCCN2C[C@H](F)C3)nc2c(F)c(-c3ccc(F)c4sc(N)c(C#N)c34)c(C(F)(F)F)cc12)[C@H]1CCN(C(=O)N(C)C)C1 (atropisomer, axis not shown) [Compound 540, (3S)-3-[[7-(2-amino-3-cyano-7-fluoro-benzothiophen-4-yl)-8-fluoro-2-[[(2R,8S)-2-fluoro-1,2,3,5,6,7-hexahydropyrrolizin-8-yl]methoxy]-6-(trifluoromethyl)quinazolin-4-yl]-ethyl-amino]-N,N-dimethyl-pyrrolidine-1-carboxamide] | ≤ 100 | – | ≤ 100 | < 100 | – | – | ≤ 100 | – | –
N#Cc1c(N)sc2c(F)ccc(-c3c(C(F)(F)F)cc4c(N5CCn6nc(N7CCOCC7)cc6C5)nc(OC[C@@]56CCCN5C[C@H](F)C6)nc4c3F)c12 [Compound 485] | – | 1000 to 10000 | – | – | < 100 | 1000 to 10000 | – | – | –
CCN(c1nc(OC[C@@]23CCCN2C[C@H](F)C3)nc2c(F)c(-c3ccc(F)c4sc(N)c(C#N)c34)c(C(F)(F)F)cc12)[C@@H]1C[C@H]2CCC(=O)N2C1 (atropisomer, axis not shown) [Compound 532] | 100 to 1000 | 100 to 1000 | 100 to 1000 | < 100 | < 100 | 100 to 1000 | 100 to 1000 | – | –
CCN(c1nc(OC[C@@]23CCCN2C[C@H](F)C3)nc2c(F)c(-c3ccc(F)c4sc(N)c(C#N)c34)c(C(F)(F)F)cc12)[C@H]1C[C@H]2CN(C)C(=O)N2C1 (atropisomer, axis not shown; (aS)) [Compound 543, 2-amino-4-((S)-4-(ethyl((6S,7aS)-2-methyl-3-oxohexahydro-1H-pyrrolo[1,2-c]imidazol-6-yl)amino)-8-fluoro-2-(((2R,7aS)-2-fluorotetrahydro-1H-pyrrolizin-7a(5H)-yl)methoxy)-6-(trifluoromethyl)quinazolin-7-yl)-7-fluorobenzo[b]thiophene-3-carbonitrile] | ≤ 100 | < 100 | ≤ 100 | < 100 | < 100 | < 100 | ≤ 100 | – | –
CCN(c1nc(OC[C@@]23CCCN2C[C@H](F)C3)nc2c(F)c(-c3ccc(F)c4sc(N)c(C#N)c34)c(C(F)(F)F)cc12)[C@H]1CCN(C(=O)OC)C1 (atropisomer, axis not shown) [Compound 541, methyl(3S)-3-[[7-(2-amino-3-cyano-7-fluoro-benzothiophen-4-yl)-8-fluoro-2-[[(2R,8S)-2-fluoro-1,2,3,5,6,7-hexahydropyrrolizin-8-yl]methoxy]-6-(trifluoromethyl)quinazolin-4-yl]-ethyl-amino]pyrrolidine-1-carboxylate] | ≤ 100 | < 100 | ≤ 100 | – | – | < 100 | ≤ 100 | < 100 | < 100
Cc1cc2n(n1)CCN(c1nc(OCC34CCCN3CC(F)C4)nc3c(F)c(-c4ccc(F)c5sc(N)c(C#N)c45)c(C(F)(F)F)cc13)C2 (stereo not shown) [Compound 484] | – | 1000 to 10000 | – | – | < 100 | 1000 to 10000 | – | – | –
CCN(c1nc(OC[C@@]23CCCN2C[C@H](F)C3)nc2c(F)c(-c3ccc(F)c4sc(N)c(C#N)c34)c(C(F)(F)F)cc12)[C@@H]1C[C@H](C)N(C(C)=O)C1 (atropisomer, axis not shown) [Compound 534] | 100 to 1000 | 100 to 1000 | 100 to 1000 | < 100 | < 100 | 100 to 1000 | 100 to 1000 | – | –
CCN(c1nc(OC[C@@]23CCCN2C[C@H](F)C3)nc2c(F)c(-c3ccc(F)c4sc(N)c(C#N)c34)c(C(F)(F)F)cc12)[C@H]1CCN(C(=O)C(C)C)C1 (atropisomer, axis not shown) [Compound 468] | – | > 10000 | – | – | – | > 10000 | – | 100 to 1000 | –
CCN(c1nc(OC[C@@]23CCCN2C[C@H](F)C3)nc2c(F)c(-c3ccc(F)c4sc(N)c(C#N)c34)c(C(F)(F)F)cc12)[C@H]1C[C@H](C)N(C(=O)C2CC2)C1 [Compound 470] | – | < 100 | – | – | < 100 | < 100 | – | – | –
CCOC(=O)N1CC[C@H](N(CC)c2nc(OC[C@@]34CCCN3C[C@H](F)C4)nc3c(F)c(-c4ccc(F)c5sc(N)c(C#N)c45)c(C(F)(F)F)cc23)C1 [Compound 467] | – | < 100 | – | – | < 100 | < 100 | – | – | –

Next, values leading:

IC50 [1] [nM] | IC50 [2] [nM] | IC50 [3] [nM] | IC50 (GP2d cells (KRAS G12D); GP2d) [nM] | IC50 (GP2d cells (KRAS G12D); GP2d, pERK HTRF) [nM] | IC50 [4] [nM] | IC50 [5] [nM] | IC50 (GP2d cells (KRAS G12D); pERK HTRF) [nM] | IC50 (GP2d cells (KRAS G12D)) [nM] | Structure (SMILES)
100 to 1000 | < 100 | 100 to 1000 | < 100 | < 100 | 100 to 1000 | 100 to 1000 | – | – | Cc1c(C(=O)N(C)C)nn2c1CN(c1nc(OC[C@@]34CCCN3C[C@H](F)C4)nc3c(F)c(-c4ccc(F)c5sc(N)c(C#N)c45)c(C(F)(F)F)cc13)CC2 [Compound 501]
100 to 1000 | < 100 | 100 to 1000 | < 100 | < 100 | 100 to 1000 | ≤ 100 | – | – | CCN(c1nc(OC[C@@]23CCCN2C[C@H](F)C3)nc2c(F)c(-c3ccc(F)c4sc(N)c(C#N)c34)c(C(F)(F)F)cc12)[C@H]1C[C@@H]2COC(=O)N2C1 (atropisomer, axis not shown) [Compound 519]
≤ 100 | < 100 | ≤ 100 | < 100 | – | < 100 | ≤ 100 | < 100 | – | CCC(=O)N1CC[C@@H](N(CC)c2nc(OC[C@@]34CCCN3C[C@H](F)C4)nc3c(F)c(-c4ccc(F)c5sc(N)c(C#N)c45)c(C(F)(F)F)cc23)[C@H]1C (atropisomer, axis not shown) [Compound 523]
≤ 100 | < 100 | 100 to 1000 | < 100 | – | < 100 | ≤ 100 | < 100 | – | CCN(c1nc(OC[C@@]23CCCN2C[C@H](F)C3)nc2c(F)c(-c3ccc(F)c4sc(N)c(C#N)c34)c(C(F)(F)F)cc12)[C@@H]1CCN(C(=O)C2CC2)[C@@H]1C (atropisomer, axis not shown) [Compound 524]
≤ 100 | < 100 | ≤ 100 | < 100 | < 100 | < 100 | ≤ 100 | – | – | CCN(c1nc(OC[C@@]23CCCN2C[C@H](F)C3)nc2c(F)c(-c3ccc(F)c4sc(N)c(C#N)c34)c(C(F)(F)F)cc12)[C@H]1CCN(C(=O)C(C)C)C1 (single isomer, unassigned) [Compound 469]
– | < 100 | – | – | – | 100 to 1000 | – | < 100 | – | CCN(c1nc(OC[C@@]23CCCN2C[C@H](F)C3)nc2c(F)c(-c3ccc(F)c4sc(N)c(C#N)c34)c(C(F)(F)F)cc12)[C@H]1CCS(=O)(=O)C1 (atropisomer, axis not shown) [Compound 492]
100 to 1000 | < 100 | 100 to 1000 | < 100 | < 100 | < 100 | 100 to 1000 | – | – | CCN(c1nc(OC[C@@]23CCCN2C[C@H](F)C3)nc2c(F)c(-c3ccc(F)c4sc(N)c(C#N)c34)c(C(F)(F)F)cc12)[C@H]1C[C@H](C)N(C(=O)C2COC2)C1 (atropisomer, axis not shown) [Compound 539]
≤ 100 | < 100 | ≤ 100 | < 100 | < 100 | < 100 | ≤ 100 | – | – | CCN1C[C@@H](N(CC)c2nc(OC[C@@]34CCCN3C[C@H](F)C4)nc3c(F)c(-c4ccc(F)c5sc(N)c(C#N)c45)c(C(F)(F)F)cc23)CC1=O [Compound 529, 2-amino-4-(4-(ethyl((S)-1-ethyl-5-oxopyrrolidin-3-yl)amino)-8-fluoro-2-(((2R,7aS)-2-fluorotetrahydro-1H-pyrrolizin-7a(5H)-yl)methoxy)-6-(trifluoromethyl)quinazolin-7-yl)-7-fluorobenzo[b]thiophene-3-carbonitrile]
100 to 1000 | < 100 | 100 to 1000 | < 100 | < 100 | < 100 | 100 to 1000 | – | – | CN(C)C(=O)c1nn2c(c1Cl)CN(c1nc(OC[C@@]34CCCN3C[C@H](F)C4)nc3c(F)c(-c4ccc(F)c5sc(N)c(C#N)c45)c(C(F)(F)F)cc13)CC2 [Compound 517]
